Patent US20050120392A1, “Transgenic zebrafish models for thrombosis” (priority 2002, published 2005)
Entries after “also recorded” stand apart in the source; their conditions may differ. Where two headings read alike, the source gives them in different places. Bridge positions count the residues as written; N and C are the ends. Square brackets hold non-standard residues; d marks the D form. Peptide text beside a SMILES is read from it. hArg = N=C(N)NCCCC[C@H](N)C(=O)O; Mpa = O=C(O)CCS

Tests used:
[1] = test system: platelets; experiment: In vivo thrombosis assay: thrombotic agent injected into heart cavity of TG(GPIIb:eGFP) larvae; design: species or system zebrafish
Experimental: Only larvae homozygous for the GPIIb-eGFP transgene, were used for the assay. […] Injection of compounds into the heart cavity of larvae was performed using a glass-pulled capillary needle ( 15 μm in diameter at the tip) attached to a microinjector. Phenol red (0.2%) was routinely used for all injections to ensure accurate injection into the heart cavity. All larvae were anaesthetized with tricaine during the injection and returned to fresh fish water before analysis. Fluorescence was observed using a stereomicroscope with a GFP specific filter set. […] The counts were done for sections of the larvae (FIG. 2) and later totaled for the larvae. […] In these experiments (morpholino), control larvae (ADP alone) had no moving platelets. TG(GPIIb:GFP) zebrafish were bred to produce homozygous TG(GPIIb:eGFP) embryos. […] At 6 dpf, the larvae have developed a swim bladder and most (or all) of their yolk sac has disappeared.

[2] = test system: zebrafish larvae; type: in vivo
Experimental: Only larvae homozygous for the GPIIb-eGFP transgene, were used for the assay. Soaking experiments with anti-thrombotic compounds were initiated when larvae were 5 dpf and injections with thrombotic agents were performed the next day. Injection of compounds into the heart cavity of larvae was performed using a glass-pulled capillary needle (˜15 μm in diameter at the tip) attached to a microinjector. Phenol red (0.2%) was routinely used for all injections to ensure accurate injection into the heart cavity. All larvae were anaesthetized with tricaine during the injection and returned to fresh fish water before analysis. Fluorescence was observed using a stereomicroscope with a GFP specific filter set.

[3] = test system: ADP-induced platelet aggregation; experiment: In vivo anti-thrombotic assay: ADP-induced aggregate formation in TG(GPIIb:eGFP) larvae; design: species or system zebrafish; details: for platelet aggregation in zebrafish (summary statement): in vivo
Experimental: (§1) Only larvae homozygous for the GPIIb-eGFP transgene, were used for the assay. […] Injection of compounds into the heart cavity of larvae was performed using a glass-pulled capillary needle ( 15 μm in diameter at the tip) attached to a microinjector. Phenol red (0.2%) was routinely used for all injections to ensure accurate injection into the heart cavity. All larvae were anaesthetized with tricaine during the injection and returned to fresh fish water before analysis. Fluorescence was observed using a stereomicroscope with a GFP specific filter set. […] The counts were done for sections of the larvae (FIG. 2) and later totaled for the larvae. […] In these experiments (morpholino), control larvae (ADP alone) had no moving platelets.

[4] = test system: thrombin-induced platelet aggregation; experiment: In vivo anti-thrombotic assay: thrombin-induced aggregate formation in TG(GPIIb:eGFP) larvae; design: species or system zebrafish
Experimental: as §1

[5] = test system: P2Y12 mRNA; experiment: P2Y12 morpholino knockdown in ADP thrombosis assay; type: in vivo, zebrafish; details: 2.4 ng morpholino, 90 pmol ADP
Excerpt: (§2) For some experiments (aspirin, Reopro, Integrilin, Ticlopidine and hirudin), larvae were scored according to the number of stationary platelets observed. The counts were done for sections of the larvae (FIG. 2) and later totaled for the larvae. […] In these experiments (morpholino), control larvae (ADP alone) had no moving platelets.
(§3) P2Y12 (5′-[…]-3′) and GPIIb (5′-[…]-3′) morpholinos were purchased from Gene Tools (Philomath, Oreg.). Both of these morpholinos were designed to recognize the first 25 bases of coding sequence. Morpholino—(0.1 mM stock contained in 0.2% phenol red) or mock—(0.2% phenol red) injections were performed in one to four cell stage of homozygous TG(GPIIb:eGFP) zebrafish. These embryos were checked 2-4 hours after injection to eliminate non-fertilized or poorly developed eggs. The embryos were placed into Holtfretter's solution at 27° C. until used in the thrombosis assay (5-6 dpf). For the thrombosis assay, larvae were injected with 90 pmol of ADP, a concentration that immobilized all platelets in the larvae. A positive or negative effect was designated for each larva when there were moving or no moving platelets, respectively, after ADP challenge.

[6] = test system: GPIIb mRNA; experiment: GPIIb morpholino knockdown in ADP thrombosis assay; type: in vivo, zebrafish; details: 2.4 ng morpholino at 1-4 cell stage, 90 pmol ADP at 5-6 dpf, n=34
Excerpt: as §2, §3

[7] = 5 dpf larvae soaked overnight in varying concentrations, 90 pmol ADP next day
[8] = Plavix approximately 0.2-1 μg/ml overnight
[9] = GPIIb-eGFP transgenic (homozygous), zebrafish, in vivo
[10] = thrombin 3.38 ng (0.018 NIH unit)

Molecule: Nc1ncnc2c1ncn2[C@@H]1O[C@H](COP(=O)(O)OP(=O)(O)O)[C@@H](O)[C@H]1O [ADP]
- number of macroaggregates compared with phenol red-injected group ([1]; 90 pmol ADP): not significant
- platelet movement after injection ([1]; 90 pmol ADP into heart cavity): most or all of the platelets within the larvae stopped moving; also recorded: a complete inhibition of platelet movement was observed
- time until platelets stopped moving ([1]; 90 pmol ADP into heart cavity): ≤ 5 min
- microaggregates found in each injected larva ([1]; 90 pmol ADP into heart cavity, 6-7 dpf larvae, n=16): about 38±3 microaggregates
- duration of the effect ([1]; 90 pmol ADP, observed for up to 8 hours): several hours
- platelet movement after injection ([1]; ADP, concentrations lower than 90 pmol): did not induce a complete inhibition of platelet movement
- lethality (beating heart) ([2]; 90 pmol ADP into heart cavity): not lethal
- time within which the larva died ([2]; 180 pmol ADP into heart cavity, n=8): 5 to 10 min

Molecule: CNC[C@H](O)c1ccc(O)c(O)c1 [epinephrine]
- effect of collagen on platelet aggregation ([1]; epinephrine 18 pg in conjunction with collagen): did not enhance

Molecule: N=C(N)NCCCC[C@@H]1NC(=O)CCSSC[C@@H](C(N)=O)NC(=O)[C@@H]2CCCN2C(=O)[C@H](Cc2c[nH]c3ccccc23)NC(=O)[C@H](CC(=O)O)NC(=O)CNC1=O [Integrilin, eptifibatide] ([Mpa][hArg]GDWPC-NH2; disulfide 1-7)
- ADP-induced microaggregate formation [3, 7]: dose-dependent inhibition; also recorded: dose-dependently prevented
- number of platelet aggregates compared to control group ([3]; Integrilin 0.25-1.0 mg/ml overnight soak): no change
- survival after overnight treatment ([2]; Integrilin 5 mg/ml): all larvae died

Molecule: CC1CC(=O)NN=C1c1cc(-n2ccnc2)cs1 (centres unmarked) [motapizone]
- ADP-induced aggregation ([3]; motapizone 50 μM overnight soak): Partial inhibition
- ADP-induced microaggregate formation ([3]; motapizone 250 and 100 μM, overnight soak of 5 dpf larvae): effective in blocking
- action of ADP on platelet aggregation ([3]; motapizone injected 5 min before ADP challenge): ineffective
- ADP-induced aggregation ([3]; motapizone, concentrations lower than 50 μM): ineffective
- platelet aggregation in zebrafish (summary statement) [3]: decreases platelet aggregation
- platelet aggregation in zebrafish (summary statement) ([3]; listed as Motapizone): effective in reducing

Molecule: hirudin
- ADP-induced aggregation ([3]; hirudin 0.029 unit, 90 pmol ADP): did not have any effect
- thrombin-induced aggregate formation ([4]; hirudin 0.029 unit given simultaneously with thrombin 0.018 NIH unit): no aggregation was observed; also recorded: inhibited

Molecule: COC(=O)[C@H](c1ccccc1Cl)N1CCc2sccc2C1 [Plavix, Clopidogrel]
- ADP-induced aggregate formation [3, 8]: partial inhibition
- platelet aggregation in zebrafish (summary statement) [3]: effective at inhibiting
- aggregation induced by a high concentration of thrombin [4, 8]: not effective
- lethal dose [2, 9]: ≥ 5 µg/mL

Molecule: CCCCS(=O)(=O)N[C@@H](Cc1ccc(OCCCCC2CCNCC2)cc1)C(=O)O [Aggrastat, tirofiban]
- ADP-induced aggregation ([3]; Aggrastat 100 μg/ml soak 24 hours plus 240 ng injected 10 min before ADP): inhibited
- ADP-induced aggregation ([3]; Aggrastat 10-50 μg/ml overnight): ineffective
- ADP-induced aggregate formation ([3]; Aggrastat soaking alone or injection alone): did not antagonize

Molecule: 5′-AGCTGAGCTGCGTTGTTTGCTCCAT-3′ (morpholino, further chemistry not given here) [P2Y12 morpholino]
- effectiveness (larvae with moving platelets after ADP) [5]: 50%

Molecule: CC(=O)Oc1ccccc1C(=O)O [aspirin, acetylsalicylic acid]
- ADP-induced microaggregate formation [3, 7]: prevented
- microaggregate count within control phenol red-injected larvae ([3]; aspirin 115 μg/ml, no ADP): trend toward a decrease
- ADP-induced microaggregate formation ([3]; aspirin 95 and 105 μg/ml, overnight soak before ADP challenge): partially prevented
- platelet aggregation in zebrafish (summary statement) [3]: effective at inhibiting
- survival after overnight treatment ([2]; aspirin 125 μg/ml): the larvae died
- effect on platelet movement or development of the larvae ([2]; aspirin alone): no adverse effect

Molecule: 5′-GACTGAATTCCAGTTTCTTGTCCAT-3′ (morpholino backbone, further chemistry not given here) [GPIIb morpholino]
- tested larvae with moving platelets after ADP injection [6]: 76.5%

Molecule: Clc1ccccc1CN1CCc2sccc2C1 [Ticlopidine]
- concentration at which larvae did not survive the overnight treatment [2, 9]: ≥ 10 µM

Molecule: thrombin
- duration of arrested platelet movement [1, 10]: 30 min
- time after which platelets began to move more freely [1, 10]: ≤ 25 min
- platelet aggregation / arrest after injection ([1]; thrombin 3.38 ng (0.018 NIH unit) into heart cavity): induced platelet aggregation; also recorded: most of the platelets were arrested
- platelets arrested ([1]; thrombin 3.38 ng (0.018 NIH unit), 5 min after injection, n=15): 85-90%
- platelet mobility (recovery) ([1]; thrombin 3.38 ng, within an hour after injection): most platelets were mobile

Molecule: Reopro: human/murine chimeric antibody, GPIIb/IIIa antagonist
- ADP-induced microaggregate formation ([3]; Reopro 0.5-5 μg/ml overnight soak plus 120 ng injected 10 min before ADP): dose-dependently inhibited
- ADP-induced aggregation of platelets ([3]; Reopro injection alone (120 ng or less), no overnight soak): did not antagonize
- ADP-induced microaggregate formation ([3]; Reopro overnight soak plus 60 ng injected): no effect
